The results in this text go back to ChEMBL document CHEMBL6177971, “Iterative Optimization Yields Stapled Peptides with Superior Pharmacokinetics and Potency for Renal Fibrosis Treatment” (J Med Chem, 2025).

The nature of data set [1]: Half life of compound. The data set is classed as physicochemical.
Data set [2] in a line: Stability in C57BL/6J mouse serum assessed as proteolysis resistance measured up to 72 hrs by HPLC analysis. The data set is classed as ADME, cell-free.
Data set [3] can be described thus: Clearance in male C57BL/6J mouse at 2.8 mg/kg, iv measured for 3 to 240 mins by UHPLC-HRMS analysis. It is filed as ADME, organism-based. The following applies: in vivo, time 3-240 min.
A short description of data set [4]: Volume of distribution in male C57BL/6J mouse at 2.8 mg/kg, iv measured for 3 to 240 mins by UHPLC-HRMS analysis. It is filed as ADME, organism-based. To be noted: in vivo, time 3-240 min.
Data set [5] deals with NIH3T3. The data set is described as follows: Inhibition of myofibroblast activation in TGF-beta1-induced EMT in mouse NIH3T3 cells assessed as decrease in fibronectin level incubated for 48 hrs by Western blot analysis. The data set is classed as functional, cell-based. The following applies: dose 1-10 µM.
Data set [6] deals with NIH3T3. The data set is described as follows: Inhibition of myofibroblast activation in TGF-beta1-induced EMT in mouse NIH3T3 cells assessed as decrease in MMP2 mRNA level at 1 to 2 uM incubated for 48 hrs by qPCR analysis. The data set is classed as functional, cell-based. To be noted: dose 1-2 µM. A general note: In qPCR the cycle at which signal appears reflects the starting amount.

The test system of data set [7] is NIH3T3. The data set is described as follows: Inhibition of myofibroblast activation in TGF-beta1-induced EMT in mouse NIH3T3 cells assessed as decrease in vimentin mRNA level at 1 to 2 uM incubated for 48 hrs by qPCR analysis. It is filed as functional, cell-based. The following applies: dose 1-2 µM.
Data set [8] has as its system NIH3T3. Nature of the data set: Inhibition of myofibroblast activation in TGF-beta1-induced EMT in mouse NIH3T3 cells assessed as decrease in alpha-SMA mRNA level at 1 to 2 uM incubated for 48 hrs by qPCR analysis. It is filed as functional, cell-based. The following applies: dose 1-2 µM.
In data set [9] the test system is HK-2. The data set is described as follows: Inhibition of myofibroblast activation in TGF-beta1-induced EMT in human HK-2 cells assessed as decrease in fibronectin level at 1 to 10 uM incubated for 24 hrs by Western blot analysis. It is filed as functional, cell-based. The following applies: dose 1-10 µM. (Immunoblotting shows a protein as a band on a membrane.)

The test system of data set [10] is HK-2. The data set is described as follows: Inhibition of myofibroblast activation in TGF-beta1-induced EMT in human HK-2 cells assessed as decrease in alpha-SMA level at 1 to 10 uM incubated for 24 hrs by Western blot analysis. It is filed as functional, cell-based. To be noted: dose 1-10 µM.
Data set [11] has as its system HK-2. The data set is described as follows: Inhibition of myofibroblast activation in TGF-beta1-induced EMT in human HK-2 cells assessed as decrease in MMP-2 level at 1 to 5 uM incubated for 24 hrs by Western blot analysis. The following applies: dose 1-5 µM. The data set is classed as functional, cell-based.
For data set [12], the system named is HK-2. The data set is described as follows: Inhibition of myofibroblast activation in TGF-beta1-induced EMT in human HK-2 cells assessed as decrease in vimentin level at 1 to 5 uM incubated for 24 hrs by Western blot analysis. It is filed as functional, cell-based. The following applies: dose 1-5 µM.
The test system of data set [13] is HK-2. The data set is described as follows: Inhibition of myofibroblast activation in TGF-beta1-induced EMT in human HK-2 cells assessed as increase in E-cadherin level at 1 to 5 uM incubated for 24 hrs by Western blot analysis. The data set is classed as functional, cell-based. The following applies: dose 1-5 µM.
Data set [14] deals with HK-2. The data set is described as follows: Inhibition of myofibroblast activation in TGF-beta1-induced EMT in human HK-2 cells assessed as decrease in FN-1 mRNA level at 1 to 5 uM incubated for 24 hrs by qPCR analysis. The data set is classed as functional, cell-based. The following applies: dose 1-5 µM.
Data set [15] relates to HK-2. The data set is described as follows: Inhibition of myofibroblast activation in TGF-beta1-induced EMT in human HK-2 cells assessed as decrease in COL1A1 mRNA level at 1 to 5 uM incubated for 24 hrs by qPCR analysis. The data set is classed as functional, cell-based. To be noted: dose 1-5 µM.
In data set [16] the test system is HK-2. The data set is described as follows: Inhibition of myofibroblast activation in TGF-beta1-induced EMT in human HK-2 cells assessed as decrease in MMP2 mRNA level at 1 to 5 uM incubated for 24 hrs by qPCR analysis. The data set is classed as functional, cell-based. The following applies: dose 1-5 µM.
For data set [17], the system named is Mus musculus. Nature of the data set: Anti-fibrotic activity in C57BL/6J mouse model of unilateral ureteral obstruction assessed as decrease in collagen I level at 0.25 mg/kg, ip administered every day for 7 days by Western blot analysis. The data set is classed as functional, organism-based. To be noted: time 7.0 day.
Data set [18] has as its system Mus musculus. The data set is described as follows: Anti-fibrotic activity in C57BL/6J mouse model of unilateral ureteral obstruction assessed as decrease in fibronectin mRNA level at 0.25 mg/kg, ip administered every day for 7 days by qPCR analysis. It is filed as functional, organism-based. The following applies: time 7.0 day.
Data set [19] has as its system Mus musculus. Nature of the data set: Anti-fibrotic activity in C57BL/6J mouse model of unilateral ureteral obstruction assessed as decrease in MMP2 mRNA level at 0.25 mg/kg, ip administered every day for 7 days by qPCR analysis. To be noted: time 7.0 day. It is filed as functional, organism-based.
In data set [20] the test system is Mus musculus. The data set is described as follows: Anti-fibrotic activity in C57BL/6J mouse model of unilateral ureteral obstruction assessed as decrease in vimentin mRNA level at 0.25 mg/kg, ip administered every day for 7 days by qPCR analysis. It is filed as functional, organism-based. The following applies: time 7.0 day.
The subject of data set [21] is Mus musculus. The data set is described as follows: Anti-fibrotic activity in C57BL/6J mouse model of unilateral ureteral obstruction assessed as decrease in kidney inflammation at 0.05 to 1.25 mg/kg, ip administered every day for 7 days. It is filed as functional, organism-based. To be noted: dose 0.05-1.25 mg/kg, time 7.0 day.
The subject of data set [22] is Mus musculus. Nature of the data set: Anti-fibrotic activity in C57BL/6J mouse model of unilateral ureteral obstruction assessed as decrease in renal inflammation at 0.05 to 1.25 mg/kg, ip administered every day for 7 days by H and E staining based analysis. The data set is classed as functional, organism-based. To be noted: dose 0.05-1.25 mg/kg, time 7.0 day.
Data set [23] concerns Mus musculus. Nature of the data set: Anti-fibrotic activity in C57BL/6J mouse model of unilateral ureteral obstruction assessed as decrease in renal fibrosis at 0.05 to 1.25 mg/kg, ip administered every day for 7 days by H and E staining based analysis. The data set is classed as functional, organism-based. The following applies: dose 0.05-1.25 mg/kg, time 7.0 day.
Data set [24] relates to Mus musculus. The data set is described as follows: Anti-fibrotic activity in C57BL/6J mouse model of unilateral ureteral obstruction assessed as decrease in renal alpha-SMA […] level administered intraperitoneally every day for 7 days by IHC analysis. It is filed as functional, organism-based. To be noted: dose 0.05-1.25 mg/kg, route ip, time 7.0 day.

Broadly, the half-life is how long it takes for the measured level to halve. Lower therefore signals rapid decline. As usually defined, the clearance is a measure of how efficiently the substance is removed, as volume per time. The term Vd denotes a proportionality between amount in the body and measured concentration, not a real space.

Active and inactive are the calls of the source. No cut-off for these calls is given here.

In data set [1], `CCCCCCCCCCCC(=O)N[C@H](CC(=O)O)C(=O)N[C@@H](Cc1c[nH]cn1)C(=O)N[C@@H](CC(N)=O)C(=O)N[C@H]1CSCCCCCCSC[C@@H](C(N)=O)NC(=O)[C@@H](C)NC(=O)[C@H](CCC(N)=O)NC(=O)[C@@H]2CCCN2C1=O` had a half-life of 27 h. Besides, in [2], the Stability result is listed as “Stable”. For the same compound, the clearance in data set [3] was 0.467 mL/min. The compound further came in with a Vd in [4] of 0.044 L. Moreover, the inhibition result was “Active; No Further Enhancement In Antifibrotic Activity Was Observed At Concentrations Above 2 Î¼M” in data set [5], “Active; No Additional Suppression Observed At Concentrations Above 5 Î¼M” in data set [9] and “Active; No Additional Suppression Observed At Concentrations Above 5 Î¼M” in data set [10]. For the same compound, the inhibition entry in data set [6], in data set [7], in data set [8], in data set [11], in data set [12] and in data set [13] was “Active” throughout. For the same compound, the inhibition entry in [14], in data set [15] and in [16] was “Active” in each case. Besides, the result in data set [17], in data set [18], in data set [19], in data set [20], in data set [21] and in data set [22] was Active. Also, in data set [23], the outcome was Active. The Activity result in data set [24] is “Dose-dependent-effect”.
